Columns and labels:
[1] = Open-label, fixed sequence healthy volunteer drug-drug interaction trial of CBD and stiripentol (steady-state pharmacokinetics, safety); type: in vivo, human; conditions: healthy volunteers
Procedure: As part of an open-label, fixed sequence, healthy volunteer trial the primary objective was to investigate the impact of CBD (750 mg twice daily) on the steady-state pharmacokinetics of stiripentol (STP) (750 mg) and the reciprocal effect on CBD, 7-hydroxy-cannabidiol (7-OH-CBD) and 7-carboxy-cannabidiol (7-COOH-CBD).
Analyte plasma concentrations were determined using validated bioanalytical methods. A secondary objective was to evaluate the safety and tolerability of CBD when co-administered with STP.

[2] = test system: convulsive seizures in patients with treatment-resistant Dravet syndrome; test: Clinical trial of adjunctive CBD in treatment-resistant Dravet syndrome; analysis of the interaction with concomitant AEDs; type: in vivo, human; conditions: for Percentage of patients with greater than 50% reduction in seizures: Dravet syndrome patients aged 2-18 years, convulsive seizures over treatment period vs 4-week baseline, CBD 20 mg/kg/day or placebo added to current AEDs
Procedure: Following completion of a 4-week baseline period, patients were randomized to receive either 20 mg/kg/day CBD (n=61) or placebo (n=59). CBD or placebo were added to their current anti-epileptic treatment which remained stable over the treatment period of the study.
Seizure counts were reported daily via an Interactive Voice Response System. Convulsive seizures were defined as all countable atonic, tonic, clonic, and tonic-clonic seizures. The primary efficacy end point was percent change from baseline in convulsive seizures.
During a 4-week baseline period, patients were required to have at least 4 convulsive seizures (tonic-clonic, clonic, tonic or atonic) while on stable AED therapy. Patients had previously failed a median of 4 prior AEDs and 93% were taking 2 or more concomitant AEDs during the trial. The most commonly used concomitant AEDs (>25% of patients) were clobazam, valproate, stiripentol, levetiracetam, and topiramate.
Following the trial statistical analysis was performed on the various patient groups to determine whether there was an interaction between any of the concomitant AEDs that the patients were taking.
Table 6 below describes the percentage of patients that recorded a 50% reduction in convulsive seizures over the treatment period.

[3] = CBD 750 mg twice daily, STP 750 mg, plasma

C=C(C)[C@@H]1CCC(C(=O)O)=C[C@H]1c1c(O)cc(CCCCC)cc1O [7-COOH-CBD, 7-carboxy-cannabidiol]
reduction of exposure by co-administered STP [1, 3]: 13%

C=C(C)[C@@H]1CCC(CO)=C[C@H]1c1c(O)cc(CCCCC)cc1O [7-OH-CBD, 7-hydroxy-cannabidiol]
reduction of exposure by co-administered STP [1, 3]: 29%

C=C(C)[C@@H]1CCC(C)=C[C@H]1c1c(O)cc(CCCCC)cc1O [CBD, cannabidiol]
median percent change from baseline in reduction of convulsive seizures, compared with placebo ([2]; CBD 20 mg/kg/day group (n=61) vs placebo (n=59), p=0.0123): statistically superior to placebo
effect of co-administration of STP on CBD exposure [1, 3]: no effect
most common adverse event (AE) ([1]; CBD co-administered with STP): diarrhoea

CC(C)(C)C(O)/C=C/c1ccc2c(c1)OCO2 (stereo not shown) [Stiripentol, stiripentol]
Percentage of patients with greater than 50% reduction in seizures [2]: 14%
Percentage of patients with greater than 50% reduction in seizures ([2]; listed as stiripentol): 14%
